Measured values reported in paper PMC3430621, “HPLC–MS/MS Analysis of a Traditional Chinese Medical Formulation of Bu-Yang-Huan-Wu-Tang and Its Pharmacokinetics after Oral Administration to Rats” (PLoS ONE, 2012).
Read-outs that look alike come from different tables or passages of the source.

Tests used:
[1] = design: method as in PMID 17931809; conditions: cited from earlier work
[2] = Pharmacokinetics in conscious freely moving rats after oral administration of BYHWT extract (HPLC-MS/MS of plasma); type: in vivo, Sprague-Dawley rats; conditions: rat plasma, BYHWT extract 10 g/kg p.o.; for Cmax / Tmax / half-life: male, Sprague-Dawley, po, n = 6; for Cmax: read-out: Cmax; for Tmax: read-out: Tmax (converted); for half-life: read-out: t1/2
Text: The protocol listed below has been reviewed and approved by the Institutional Animal Care and Use Committee (IACUC; approval number 1010409) by the Institutional Animal Experimentation Committee of the National Yang-Ming University. Male pathogen-free Sprague-Dawley rats (250±50 g body weight) were obtained from the Laboratory Animal Center of National Yang Ming University. The animals had free access to food (Laboratory rodent diet 5P14, PMI Feeds, Richmond, IN, USA) and water was allowed at all times. All animal experiments followed the National Yang-Ming University guidelines and procedures for the care of laboratory animals. […] Experimental rats were initially anesthetized with pentobarbital (50 mg/kg, i.p.), and polyethylene tubing was implanted in the right jugular vein for blood sampling. The tube crossed the subcutaneous tissue and was fixed at its exit from the dorsal neck region. The patency tubing was maintained by filling with heparinized saline (20 units/mL). After surgery, the rats were placed in experimental cages and allowed to recuperate for one day. The rats were kept fasted for 12 h and water were available ad libitum before the BYHWT administration. […] In our study, the dose of BYHWT (10 g/kg) was appropriate for oral administration in rats. […] The condensed blood collection in the absorption phase is to figure out the maximum concentration and the time when it reaches the maximum concentration. The time points in the elimination phase are not close. This strategy is commonly used in the pharmacokinetic studies but the total blood consumption should not be over 20% of body blood. In these experimental rats, the total blood sampling volume is within 20% during 12 h. Plasma was separated by centrifuging the blood sample at 6000 rpm for 10 min at 4°C. […] The samples were vortexed and centrifuged at 16,100×g for 10 min. In our micro-analysis, less than 200 μL is needed. Actually, the collected blood volume is around 120-150 μL for each time point. After centrifugation, the plasma samples (50 μL) were vortex-mixed with 100 μL of acetonitrile. The supernatants were collected and filtered. Around 20 μL aliquot of the supernatants was transferred into the vial for analysis by HPLC-MS/MS system. The acetonitrile but not the real sample was used in the needle pre-wash standard procedure [19]. The LC-MS/MS system consisted of an Agilent 1100 series LC with automatic liquid chromatographic sampler, injector, bi-pump and degasser; and Applied Biosystems/MDS Sciex API 3000 tandem quadrupole mass spectrometry equipped with electrospray ionization (ESI) interface using the following parameters: nebulizer gas (NEB):10, curtain gas (CUR): 7, collisionally activated dissociation gas (CAD): 12, ionspray voltage (IS): 5000 V, turbo ionspray temperature (TEM): 450°C. Nitrogen was used in all cases. The mass spectrometer was operated in the positive ion detection mode. […] The following linear gradient program was applied to the analyte with the mobile phase consisting of methanol (0.1% formic acid, solvent A) and NH4OAc (0.1% formic acid, solvent B): 0-1 min: 30-70% A; 1-2 min 70-90%; 2-8 min: 90-90%; 8-9 min: 90-30%, 9-18 min: 30-30%, v/v. […] The flow rate was maintained at […]. Pharmacokinetic parameters including maximum plasma concentration (Cmax), time to reach the maximum concentrations (Tmax), half-life (t1/2), area under concentration-time curve (AUC) and oral clearance (CL) were estimated by a non-compartmental analysis using the pharmacokinetic program, WinNonlin Standard Edition Version 1.1 (Scientific Consulting, Apex, NC, USA). All results were expressed as average mean ± standard deviation (S.D.). ANOVA was used to evaluate differences, and a value of P<0.05 was taken as statistically significant.

[3] = Stability of the analytes in rat plasma samples (freeze-thaw, short-term, long-term, autosampler); type: in vitro ADME; conditions: n = 3; for Stability (%) Autosampler stability: autosampler 8°C 12 h; for Stability (%) Short-term stability: room temperature 6 h; for Stability (%) Freeze-thaw stability: three freeze-thaw cycles; for Stability (%) Long-term stability: −20°C 14 days
Experimental: Stability was also assessed using the low, medium and high concentrations of analytes. Freeze-thaw stability was assessed over three freeze-thaw cycles. Short-term stability was determined by placing the samples at room temperature for 6 h. Long-term stability was evaluated by analyzing samples kept at −20°C for 14 days. Autosampler stability was determined by maintaining the samples at the autosampler temperature (8°C) for 12 h. All stabilities were calculating as the ratio of average concentration and freshly prepared samples.

Cmax [2] [ng/mL] | Tmax [2] [h] | half-life [2] [h] | absorption phase in the plasma concentration-time curve [2] | Stability (%) Autosampler stability ([3]; concentration 10 (µg/mL)) [%] | Stability (%) Short-term stability ([3]; concentration 10 (µg/mL)) [%] | Stability (%) Freeze-thaw stability ([3]; concentration 10 (µg/mL)) [%] | Stability (%) Long-term stability ([3]; concentration 10 (µg/mL)) [%] | Stability (%) Autosampler stability ([3]; concentration 100 (µg/mL)) [%] | Stability (%) Short-term stability ([3]; concentration 100 (µg/mL)) [%] | Stability (%) Freeze-thaw stability ([3]; concentration 100 (µg/mL)) [%] | Stability (%) Long-term stability ([3]; concentration 100 (µg/mL)) [%] | Stability (%) Autosampler stability ([3]; concentration 1000 (µg/mL)) [%] | Stability (%) Short-term stability ([3]; concentration 1000 (µg/mL)) [%] | Stability (%) Freeze-thaw stability ([3]; concentration 1000 (µg/mL)) [%] | Stability (%) Long-term stability ([3]; concentration 1000 (µg/mL)) [%] | SMILES | further results
– | – | – | – | – | – | – | – | – | – | – | – | – | – | – | – | COc1cc2c(c(OC)c1OC)-c1ccc(OC)c(=O)cc1[C@@H](NC(C)=O)CC2 [colchicine] | AUC ([1]; donor rats): 847.7 ± 141.0 µg·min/mL; AUC ([1]; recipient rats): 55.5 ± 29.2 µg·min/mL
97 ± 33 | 0.583 | 1.55 ± 0.533 | single and plateau absorption phase | −3.3±7.3 | 7.7±10 | 7.3±4.6 | 21±15 | −1.6±8.2 | −1.8±9.4 | 2.1±1.8 | 10±7.3 | 8.5±5.1 | 11±8.4 | 9.5±0.2 | 27±9.9 | C[C@@]12C[C@@]3(O)O[C@@H](O1)[C@]1(COC(=O)c4ccccc4)[C@H]3C[C@@]12O[C@@H]1O[C@H](CO)[C@@H](O)[C@H](O)[C@H]1O [Paeoniflorin, paeoniflorin] | –
19 ± 4.5 | 0.583 | 2.23 ± 0.16 | single and plateau absorption phase | −7.0±1.4 | −12±4.6 | −2.5±7.3 | −6.2±2.9 | 8.1±3.8 | 6.7±2.1 | 4.2±1.3 | 3.2±3.9 | – | – | – | – | COc1ccc(-c2coc3cc(O[C@@H]4O[C@H](CO)[C@@H](O)[C@H](O)[C@H]4O)ccc3c2=O)cc1 [Ononin, ononin] | Stability (%) Autosampler stability ([3]; concentration 1 (µg/mL)): 4.7±7.7%; Stability (%) Short-term stability ([3]; concentration 1 (µg/mL)): 12±6.3%; Stability (%) Freeze-thaw stability ([3]; concentration 1 (µg/mL)): 3.9±6.4%; Stability (%) Long-term stability ([3]; concentration 1 (µg/mL)): −7.2±10%
98 ± 17 | 0.633 | 2.92 ± 0.217 | single and plateau absorption phase | −13±4.1 | −3.4±12 | −4.9±3.8 | −13±5.5 | −4.6±11 | 1.1±10 | 5.8±10 | −12±7.5 | 0.8±12 | 1.5±10.4 | −3.5±6.0 | 1.0±6.4 | COc1ccc(-c2coc3cc(O)ccc3c2=O)cc1 [Formononetin, formononetin] | –
